Where two headings read alike, the source gives them in different places.
How the values were obtained:
human recombinant WT BTK = human recombinant WT BTK (Homo sapiens, UniProt Q06187); test: Caliper-based biochemical enzymatic assay (IC50) against WT BTK; details: WT BTK 0.5 nM, ATP 16 μM, peptide substrate 1 μM, room temperature 3 h
Experimental: The reaction was then terminated with EDTA, final concentration 20 mM and the phosphorylated reaction product was quantified on a Caliper Desktop Profiler (Caliper LabChip 3000). Percent inhibition was calculated for each compound dilution and the concentration that produced 50% inhibition was calculated.

[1] = mice, even at higher doses; cited from earlier work
[2] = dogs, even at higher doses; cited from earlier work
[3] = rats, treatment for longer than 7 days; cited from earlier work
[4] = formulations containing GDC-0853; cited from earlier work

Sequence of human recombinant WT BTK (Q06187 whole entry): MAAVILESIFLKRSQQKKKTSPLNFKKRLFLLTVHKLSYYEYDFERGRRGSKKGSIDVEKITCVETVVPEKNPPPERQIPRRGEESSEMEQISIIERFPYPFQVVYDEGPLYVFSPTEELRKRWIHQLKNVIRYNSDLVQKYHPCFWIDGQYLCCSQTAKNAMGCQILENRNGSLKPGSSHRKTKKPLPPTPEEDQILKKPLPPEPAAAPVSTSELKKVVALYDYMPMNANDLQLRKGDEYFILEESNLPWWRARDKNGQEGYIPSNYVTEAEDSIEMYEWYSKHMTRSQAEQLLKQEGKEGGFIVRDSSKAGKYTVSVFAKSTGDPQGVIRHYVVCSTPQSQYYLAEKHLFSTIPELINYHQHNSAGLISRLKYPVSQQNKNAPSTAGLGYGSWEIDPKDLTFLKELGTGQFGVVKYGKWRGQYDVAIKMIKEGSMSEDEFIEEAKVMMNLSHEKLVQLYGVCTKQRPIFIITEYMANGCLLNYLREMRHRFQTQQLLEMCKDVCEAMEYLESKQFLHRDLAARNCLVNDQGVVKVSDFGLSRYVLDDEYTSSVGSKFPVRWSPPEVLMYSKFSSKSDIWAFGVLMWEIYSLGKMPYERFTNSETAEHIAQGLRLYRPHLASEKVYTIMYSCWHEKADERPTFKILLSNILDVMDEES

SMILES	IC50 (human recombinant WT BTK) [nM]	pancreatic toxicity [1]	pancreatic toxicity [2]	pancreatic toxicity [3]	tolerability in Phase I clinical trials [4]
C=CC(=O)Nc1cc(Nc2nc(-c3ccnc(NC(=O)c4ccc(C(C)(C)C)cc4)c3CO)cn(C)c2=O)ccc1N1CCN(C2CCOCC2)C[C@@H]1C [Example 1, 4-tert-butyl-N-[3-(hydroxymethyl)-4-[4-methyl-6-([4-[(2S)-2-methyl-4-(oxan-4-yl)piperazin-1-yl]-3-(prop-2-enamido)phenyl]amino)-5-oxopyrazin-2-yl]pyridin-2-yl]benzamide]	0.64				
C[C@H]1CN(C2COC2)CCN1c1ccc(Nc2cc(-c3ccnc(N4CCn5c(cc6c5CC(C)(C)C6)C4=O)c3CO)cn(C)c2=O)nc1 [GDC-0853]		does not occur	does not occur	leads to pancreatic toxicity	well-tolerated
